The supplement of paper PMC10307832

Experiments:
Assay in all cases: relative viability (nuclei count vs DMSO), 5 days (fraction); higher = more cells survive
FG-4592 + Tozasertib = compound: Cc1nc(C(=O)NCC(=O)O)c(O)c2ccc(Oc3ccccc3)cc12 [FG-4592] + Cc1cc(Nc2cc(N3CCN(C)CC3)nc(Sc3ccc(NC(=O)C4CC4)cc3)n2)n[nH]1 [Tozasertib] (partner 0.1 µM)
Method in brief: (§1)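 The day after seeding in 1536-well plates, lung cancer cell lines were treated by pin tool with a single drug, or with a fixed anchor-drug dose together with five library-drug doses (not always all listed) in √10 steps. After 5 days, a combined fix-and-stain solution (final 0.05% Triton X-100, 1% formaldehyde, 1 ug/ml Hoechst) was added. Nuclei counted on 4× images gave relative viability as treated counts over vehicle counts, reported as the median of duplicate plates.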

IU1-47 + Navitoclax = compound: CC1=CC(=C(N1C2=CC=C(C=C2)Cl)C)C(=O)CN3CCCCC3 [IU1-47] + CC1(C)CCC(c2ccc(Cl)cc2)=C(CN2CCN(c3ccc(C(=O)NS(=O)(=O)c4ccc(N[C@H](CCN5CCOCC5)CSc5ccccc5)c(S(=O)(=O)C(F)(F)F)c4)cc3)CC2)C1 [Navitoclax] (partner 0.5 µM)
Method in brief: as §1

FG-4592 = compound: Cc1nc(C(=O)NCC(=O)O)c(O)c2ccc(Oc3ccccc3)cc12 [FG-4592]
Method in brief: (§2)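 Following overnight incubation at 37 °C, lung cancer cell lines in 1536-well plates were pinned with five library-drug doses (not always all listed) in √10 steps on vehicle-anchored plates. The cells then spent 5 days without medium change before a combined fix, permeabilisation and Hoechst stain, 4× imaging and MetaXpress nuclear counts. Viability is the treated-to-vehicle ratio of nuclei, taken as the median across plates. Only plates with control CV below 25% and at least one doubling passed.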

IU1-47 = compound: CC1=CC(=C(N1C2=CC=C(C=C2)Cl)C)C(=O)CN3CCCCC3 [IU1-47]
Method in brief: as §2

## UMC-11
FG-4592 + Tozasertib; first compound 0.08 µM
  relative viability: 0.217
FG-4592 + Tozasertib; first compound 0.253 µM
  relative viability: 0.184
FG-4592 + Tozasertib; first compound 0.8 µM
  relative viability: 0.199
FG-4592 + Tozasertib; first compound 2.53 µM
  relative viability: 0.203
FG-4592 + Tozasertib; first compound 8 µM
  relative viability: 0.198
IU1-47 + Navitoclax; first compound 0.08 µM
  relative viability: 0.297
IU1-47 + Navitoclax; first compound 0.253 µM
  relative viability: 0.315
IU1-47 + Navitoclax; first compound 0.8 µM
  relative viability: 0.329
IU1-47 + Navitoclax; first compound 2.53 µM
  relative viability: 0.349
IU1-47 + Navitoclax; first compound 8 µM
  relative viability: 0.313
FG-4592; 0.08 µM
  relative viability: 0.952
FG-4592; 0.253 µM
  relative viability: 0.928
FG-4592; 0.8 µM
  relative viability: 0.806
FG-4592; 2.53 µM
  relative viability: 1.07
FG-4592; 8 µM
  relative viability: 0.804
IU1-47; 0.08 µM
  relative viability: 1.01
IU1-47; 0.253 µM
  relative viability: 0.961
IU1-47; 0.8 µM
  relative viability: 1.01
IU1-47; 2.53 µM
  relative viability: 0.991
IU1-47; 8 µM
  relative viability: 0.922
